10 compounds from paper PMC11073913 (Archiv der Pharmazie, 2024) can be followed below.

One experiment has as its target T1, human recombinant COX-2 (Homo sapiens, UniProt P35354).
T1 sequence (P35354 18-604): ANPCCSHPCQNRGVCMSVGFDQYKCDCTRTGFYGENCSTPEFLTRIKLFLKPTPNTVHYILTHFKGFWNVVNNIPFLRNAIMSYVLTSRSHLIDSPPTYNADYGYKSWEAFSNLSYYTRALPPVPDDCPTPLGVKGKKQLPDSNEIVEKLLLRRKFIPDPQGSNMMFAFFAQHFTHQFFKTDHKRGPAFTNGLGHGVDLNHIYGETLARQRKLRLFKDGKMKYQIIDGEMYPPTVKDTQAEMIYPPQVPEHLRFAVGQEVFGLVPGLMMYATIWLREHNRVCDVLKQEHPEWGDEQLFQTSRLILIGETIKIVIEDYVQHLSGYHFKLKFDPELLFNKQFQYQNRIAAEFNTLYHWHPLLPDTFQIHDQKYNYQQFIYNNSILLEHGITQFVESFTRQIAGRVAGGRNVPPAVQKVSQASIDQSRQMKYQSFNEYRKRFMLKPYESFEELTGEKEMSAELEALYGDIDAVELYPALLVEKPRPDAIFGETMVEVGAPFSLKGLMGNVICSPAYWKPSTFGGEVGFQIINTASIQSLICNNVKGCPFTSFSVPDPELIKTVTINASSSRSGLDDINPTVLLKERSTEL
Kind of experiment: In vitro COX-2 inhibitory assay. It counts as biochemical. The note with it: for Enhancement of anti-COX-2 activity by p-Cl on benzylidine: compared with unsubstituted compounds 4b, 4c, 4g, 4h respectively.

Experiment [1] concerns LPS-induced IL-6 production in RAW 264.7 cells. To be noted: for IL-6 level: cells treated with 25 μM compound, LPS-activated RAW 264.7.
A further experiment has as its target T2, soybean 15-LOX (Glycine max, UniProt P08170).
T2 sequence (P08170 1-839): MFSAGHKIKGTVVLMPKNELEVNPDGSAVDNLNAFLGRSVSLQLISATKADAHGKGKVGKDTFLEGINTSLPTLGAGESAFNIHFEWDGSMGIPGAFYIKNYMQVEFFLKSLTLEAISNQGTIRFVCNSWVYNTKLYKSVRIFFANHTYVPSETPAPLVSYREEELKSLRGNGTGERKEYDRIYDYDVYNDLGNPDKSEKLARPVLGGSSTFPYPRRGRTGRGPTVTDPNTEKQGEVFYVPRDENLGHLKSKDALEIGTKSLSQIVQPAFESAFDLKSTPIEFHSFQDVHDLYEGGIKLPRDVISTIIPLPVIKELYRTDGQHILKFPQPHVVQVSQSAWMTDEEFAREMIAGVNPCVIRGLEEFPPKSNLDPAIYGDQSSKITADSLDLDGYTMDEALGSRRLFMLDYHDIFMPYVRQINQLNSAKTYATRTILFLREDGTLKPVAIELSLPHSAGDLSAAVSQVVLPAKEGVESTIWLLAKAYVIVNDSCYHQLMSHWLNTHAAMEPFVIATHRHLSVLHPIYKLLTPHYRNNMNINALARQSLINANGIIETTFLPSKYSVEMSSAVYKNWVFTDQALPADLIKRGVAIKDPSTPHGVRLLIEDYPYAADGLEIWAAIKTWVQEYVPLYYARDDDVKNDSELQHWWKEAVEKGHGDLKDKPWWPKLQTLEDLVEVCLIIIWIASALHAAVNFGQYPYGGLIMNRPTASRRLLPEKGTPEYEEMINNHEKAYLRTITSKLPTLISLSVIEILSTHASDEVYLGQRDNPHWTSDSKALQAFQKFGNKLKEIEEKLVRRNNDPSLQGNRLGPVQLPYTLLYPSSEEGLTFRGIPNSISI
Kind of experiment: In vitro 15-LOX inhibitory assay. The experiment is classed as biochemical.

Experiment [2] has as its system LPS-induced TNF-α production in RAW 264.7 cells. To be noted: for TNF-α level: cells treated with 25 μM compound, LPS-activated RAW 264.7.
In experiment [3] the test system is LPS-induced ROS production in RAW 264.7 cells. Briefly: cells. The note with it: Mus musculus, RAW264.7, 18 h, read-out: ROS (IC50).
For the next experiment, the target named is T3, ovine COX-1 (Ovis aries, UniProt P05979).
T3 sequence (P05979 25-600): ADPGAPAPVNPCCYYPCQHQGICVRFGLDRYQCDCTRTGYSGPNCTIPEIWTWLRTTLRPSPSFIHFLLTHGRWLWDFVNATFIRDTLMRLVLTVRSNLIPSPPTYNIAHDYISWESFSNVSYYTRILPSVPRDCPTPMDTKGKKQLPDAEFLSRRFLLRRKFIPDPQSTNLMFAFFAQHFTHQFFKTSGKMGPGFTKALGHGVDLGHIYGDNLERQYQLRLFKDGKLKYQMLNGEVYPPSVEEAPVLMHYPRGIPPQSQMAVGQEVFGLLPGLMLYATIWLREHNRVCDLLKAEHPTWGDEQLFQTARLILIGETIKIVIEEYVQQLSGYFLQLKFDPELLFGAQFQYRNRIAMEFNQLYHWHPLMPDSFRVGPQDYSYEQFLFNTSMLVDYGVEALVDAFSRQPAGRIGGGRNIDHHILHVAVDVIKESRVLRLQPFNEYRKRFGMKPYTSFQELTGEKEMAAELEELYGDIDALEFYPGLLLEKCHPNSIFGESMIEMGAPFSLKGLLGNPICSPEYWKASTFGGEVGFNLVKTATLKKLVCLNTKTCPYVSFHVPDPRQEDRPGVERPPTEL
Briefly: In vitro COX-1 inhibitory assay. The experiment is classed as biochemical.

Where “and” joins values, the source holds several entries; their conditions need not be identical. Equal entries are not always repeated.

As for `O=C(CSC1=N/C(=C\c2ccccc2)C(=O)N1c1ccccc1)Nc1ccccc1` [Compound 4a, (Z)-2-[(4-Benzylidene-5-oxo-1-phenyl-4,5-dihydro-1H-imidazol-2-yl)thio]-N-phenylacetamide], the IC50 on human recombinant COX-2 came out at 0.12 ± 0.06 µM; at soybean 15-LOX it was 5.71 ± 2.56 µM; in experiment [3], 44.6 ± 1.43 µM; against ovine COX-1, 7.83 ± 1.19 µM. The “SI (Selectivity index = COX-1 IC50/COX-2 IC50)” value on human recombinant COX-2 turned out to be 62.97. The same compound displayed an IL-6 level in experiment [1] of 37.82 ± 1.06 pg/mL. The TNF-α level in experiment [2] is 57.28 ± 18.75 pg/mL.

Consider `O=C(CSC1=N/C(=C\c2ccccc2)C(=O)N1c1ccccc1)Nc1cccc(C(F)(F)F)c1` [Compound 4h, (Z)-2-[(4-Benzylidene-5-oxo-1-phenyl-4,5-dihydro-1H-imidazol-2-yl)thio]-N-[3-(trifluoromethyl)phenyl]acetamide], for which the IC50 on human recombinant COX-2 was 0.28 ± 0.155 µM; on soybean 15-LOX, 5.71 ± 2.56 µM; in experiment [3], 45.4 ± 1.23 µM; at ovine COX-1, 11.1 ± 1.63 µM. In addition, the “SI (Selectivity index = COX-1 IC50/COX-2 IC50)” value at human recombinant COX-2 is recorded as 39.99. Besides, in experiment [1], the IL-6 level is 23.42 pg/mL and 23.42 ± 1.05 pg/mL. Moreover, in experiment [2], the TNF-α level is reported as 24.15 ± 1.05 pg/mL.

For the compound `O=C(CSC1=N/C(=C\c2ccccc2)C(=O)N1c1ccccc1)NCc1ccccc1` [Compound 4i, (Z)-N-Benzyl-2-[(4-benzylidene-5-oxo-1-phenyl-4,5-dihydro-1H-imidazol-2-yl)thio]acetamide], the IC50 at human recombinant COX-2 came out at 0.09 ± 0.041 µM; against soybean 15-LOX, 2.82 ± 1.27 µM; in experiment [3], 21.8 ± 1.26 µM; on ovine COX-1, 10.6 ± 1.62 µM. On human recombinant COX-2, the “SI (Selectivity index = COX-1 IC50/COX-2 IC50)” value amounted to 121.60. In addition, the IL-6 level in experiment [1] was 21.00 pg/mL and 21.00 ± 9.39 pg/mL. Besides, the TNF-α level in experiment [2] came out at 46.98 ± 25.83 pg/mL.

Turning to `O=C(CSC1=N/C(=C\c2ccc(Cl)cc2)C(=O)N1c1ccccc1)Nc1ccccc1` [Compound 4j, (Z)-2-{[4-(4-Chlorobenzylidene)-5-oxo-1-phenyl-4,5-dihydro-1H-imidazol-2-yl]thio}-N-phenylacetamide], the IC50 stood at 0.13 ± 0.064 µM on human recombinant COX-2, 4.75 ± 2.31 µM on soybean 15-LOX, 33.4 ± 1.27 µM in experiment [3] and 12 ± 1.67 µM on ovine COX-1. In addition, the “SI (Selectivity index = COX-1 IC50/COX-2 IC50)” value at human recombinant COX-2 amounted to 94.97. In addition, the IL-6 level in experiment [1] was 49.59 pg/mL and 49.59 ± 10.22 pg/mL. The compound further gave a TNF-α level in experiment [2] of 50.31 ± 10.22 pg/mL.

In the case of `O=C(CSC1=N/C(=C\c2ccc(Cl)cc2)C(=O)N1c1ccccc1)Nc1ccc(Br)cc1` [Compound 4m, (Z)-N-(4-Bromophenyl)-2-[(4-(4-chlorobenzylidene)-5-oxo-1-phenyl-4,5-dihydro-1H-imidazol-2-yl)thio]acetamide], the IC50 was found to be 0.18 ± 0.082 µM at human recombinant COX-2, 4.21 ± 1.53 µM against soybean 15-LOX, 38.4 ± 1.37 µM in experiment [3] and 8 ± 1.31 µM against ovine COX-1. For the same compound, at human recombinant COX-2, the “SI (Selectivity index = COX-1 IC50/COX-2 IC50)” value is reported as 44.12. In experiment [1], this compound came in with an IL-6 level of 27.16 ± 0.9 pg/mL. Further, the TNF-α level in experiment [2] was 27.89 pg/mL and 27.89 ± 0.90 pg/mL.

Turning to `Cc1ccc(NC(=O)CSC2=N/C(=C\c3ccc(Cl)cc3)C(=O)N2c2ccccc2)cc1` [Compound 4n, (Z)-2-{[4-(4-Chlorobenzylidene)-5-oxo-1-phenyl-4,5-dihydro-1H-imidazol-2-yl]thio}-N-(4-tolyl)acetamide], the IC50 at human recombinant COX-2 amounted to 0.12 ± 0.053 µM; on soybean 15-LOX it was 3.13 ± 1.49 µM; in experiment [3] it was 41 ± 1.39 µM; on ovine COX-1, 9.45 ± 1.33 µM. Besides, the “SI (Selectivity index = COX-1 IC50/COX-2 IC50)” value at human recombinant COX-2 was found to be 79.96. In experiment [1], this compound displayed an IL-6 level of 36.56 ± 14.95 pg/mL. Besides, in experiment [2], the TNF-α level is recorded as 37.28 ± 14.95 pg/mL.

Consider `COc1ccc(NC(=O)CSC2=N/C(=C\c3ccc(Cl)cc3)C(=O)N2c2ccccc2)cc1` [Compound 4o, (Z)-2-{[4-(4-Chlorobenzylidene)-5-oxo-1-phenyl-4,5-dihydro-1H-imidazol-2-yl]thio}-N-(4-methoxyphenyl)acetamide], for which the IC50 on human recombinant COX-2 is 0.1 ± 0.044 µM; at soybean 15-LOX it was 3.24 ± 1.46 µM; in experiment [3] it was 24.2 ± 1.26 µM; against ovine COX-1, 11 ± 1.53 µM. Moreover, on human recombinant COX-2, the “SI (Selectivity index = COX-1 IC50/COX-2 IC50)” value is 111.27. The IL-6 level in experiment [1] is 28.37 pg/mL and 28.37 ± 4.54 pg/mL. The compound also displayed a TNF-α level in experiment [2] of 29.10 ± 4.54 pg/mL.

With `COc1cc(NC(=O)CSC2=N/C(=C\c3ccc(Cl)cc3)C(=O)N2c2ccccc2)cc(OC)c1OC` [Compound 4p, (Z)-2-{[4-(4-Chlorobenzylidene)-5-oxo-1-phenyl-4,5-dihydro-1H-imidazol-2-yl]thio}-N-(3,4,5-trimethoxyphenyl)acetamide], the IC50 on human recombinant COX-2 is 0.08 ± 0.037 µM; against soybean 15-LOX, 2.69 ± 1.29 µM; in experiment [3] it was 25.4 ± 1.26 µM; against ovine COX-1, 12.8 ± 1.83 µM. Further, the “SI (Selectivity index = COX-1 IC50/COX-2 IC50)” value at human recombinant COX-2 was 152.23 and 152.33. Moreover, the “Enhancement of anti-COX-2 activity by p-Cl on benzylidine” value on human recombinant COX-2 is 1.75 folds. Further, the IL-6 level in experiment [1] is 30.70 pg/mL and 30.70 ± 3.70 pg/mL. For the same compound, in experiment [2], the TNF-α level is recorded as 31.42 ± 3.70 pg/mL.

With `O=C(CSC1=N/C(=C\c2ccc(Cl)cc2)C(=O)N1c1ccccc1)Nc1cccc(C(F)(F)F)c1` [Compound 4q, (Z)-2-{[4-(4-Chlorobenzylidene)-5-oxo-1-phenyl-4,5-dihydro-1H-imidazol-2-yl]thio}-N-[3-(trifluoromethyl)phenyl]acetamide], the IC50 at human recombinant COX-2 turned out to be 0.09 ± 0.04 µM; at soybean 15-LOX it was 3.99 ± 1.9 µM; in experiment [3], 56.2 ± 1.26 µM; against ovine COX-1, 10.1 ± 1.61 µM. On human recombinant COX-2, the “SI (Selectivity index = COX-1 IC50/COX-2 IC50)” value was 111.90. The “Enhancement of anti-COX-2 activity by p-Cl on benzylidine” value at human recombinant COX-2 came out at 3.1 folds. In experiment [1], the IL-6 level amounted to 4.54 ± 0.61 pg/mL. In addition, the “IL-6 inhibitory activity, folds more than unsubstituted benzylidine 4h” value in experiment [1] (vs 4h) is on record as ~ 5 folds. For the same compound, the TNF-α level in experiment [2] is 5.26 pg/mL and 5.26 ± 0.61 pg/mL. Also, the “TNF-α inhibitory activity, fold more than unsubstituted benzylidine 4h” value in experiment [2] (vs 4h) is listed as 4.6 fold. Also, the “TNF-α inhibition, fold more potent than celecoxib” value in experiment [2] (vs celecoxib) is on record as ~ 5 fold.

As to `O=C(CSC1=N/C(=C\c2ccc(Cl)cc2)C(=O)N1c1ccccc1)NCc1ccccc1` [Compound 4r, (Z)-N-Benzyl-2-[(4-(4-chlorobenzylidene)-5-oxo-1-phenyl-4,5-dihydro-1H-imidazol-2-yl)thio]acetamide], the IC50 at human recombinant COX-2 amounted to 0.13 ± 0.057 µM; at soybean 15-LOX, 2.47 ± 1.14 µM; in experiment [3] it was 72.4 ± 1.85 µM; on ovine COX-1, 10.1 ± 1.6 µM. For the same compound, on human recombinant COX-2, the “SI (Selectivity index = COX-1 IC50/COX-2 IC50)” value is recorded as 78.00. Moreover, the IL-6 level in experiment [1] was 20.29 ± 5.03 pg/mL. In experiment [2], this compound came in with a TNF-α level of 21.02 ± 5.03 pg/mL.

A word on the IC50: it is the concentration that gives 50% inhibition.
